Source: patent US20120076842A1, “COSMETIC USE OF TYR-ARG DIPEPTIDE TO COMBAT CUTANEOUS SAGGING” (SEDERMA, priority 2009, published 2012)

Tests used:
[1] = system: Fibulin-5 synthesis by NHDF; test: Fibulin-5 synthesis by NHDF (Western Blot method); format: cell-based, human; conditions: 10^−6% TGF-β1
Description: NHDF were cultured to confluence. The cells were exposed or not exposed to preparations containing Tyr-Arg dipeptide. The cell layers were then lysed and analyzed using the Western Blot* method. Fibulin-5 synthesis was detected using a specific antibody. The resulting bands were quantified using appropriate image-analysis software. * Western Blot: the cell layers were blended in lysis buffer. The lysate was applied to a polyacrylamide gel for electrophoresis. After migration, the proteins were transferred to a nitrocellulose membrane and the proteins of interest detected using a specific antibody. Image analysis was used to quantify the two fibulin-5 bands obtained.

[2] = system: elastin/tropoelastin, NHDF; test: Synthesis of elastin/tropoelastin by normal human fibroblasts (immunolabeling, image analysis); format: cell-based; conditions: TGF-β1, vs control
Description: Principle: normal human fibroblastes (NHDF) were cultured to confluence. The cells were then exposed or not to preparations containing Tyr-Arg peptide. The cellular layers are then marked with an antibody recognising specifically elastine.

[3] = system: Elastin/Tropoelastin by normal human fibroblasts; test: Release of Elastin/Tropoelastin by normal human fibroblasts (ELISA sandwich method); format: cell-based; conditions: TGF-β1 10-6% (positive control); vs control (placebo); n = 5
Description: Normal human dermal fibroblasts (NHDF) were cultured to confluence. The cells were then exposed or not to preparations comprising the Tyr-Arg dipeptide at different concentrations. The culture supernatants were assayed to determine the quantity of Elastin/Tropoelastin using an ELISA sandwich method. TGF-β1 was used as the positive control.

[4] = system: LOXL-1 in reconstructed skin specimens (Full Thickness Skin PHENION); test: LOXL-1 (lysyl oxydase like 1) synthesis in reconstructed skin specimens (immunolabeling); format: cell-based; conditions: TGF-β1 used as positive control
Description: LOXL synthesis was analyzed by preparations containing Tyr-Arg dipeptide in reconstructed skin specimens (Full Thickness Skin PHENION).
LOXL synthesis after application of the dipeptide was evaluated by an immunohistochemical analysis.
Preparations of Tyr-Arg dipeptide were applied to the surface of ? aged ? or not ? aged ? skins from the evening of D1 then every day. The skins were thereafter frozen for the immunohistochemical analysis.

[5] = system: transglutaminase activity in NHDF; test: Transglutaminase activity in NHDF (Dansyl Cadaverine substrate, fluorescence); format: cell-based, human; conditions: TGF-β1 10^−6%, vs control, n=6
Description: NHDF were cultivated until confluence. The cells were exposed or not exposed to preparations containing or not Tyr-Arg dipeptide. The cell layers are then exposed to transglutaminase substrate (Dansyl Cadaverine, DC). The fluorescence obtained is proportional to transglutaminase activity. (n=6).

Fibrillin-1 by NHDF = test: Synthesis of Fibrillin-1 by NHDF (immunolabeling method); format: cell-based, human; conditions: TGF-β1 10^−6%, vs control
Description: As indicated in the introduction, elastin formation is not sufficient. The presence of microfibril scaffolding is necessary. The induction of Fibrillin-1 synthesis was thus investigated.
NHDF were cultured to confluence. The cells were then exposed or not exposed to Tyr-Arg dipeptide at different concentrations for 18 days. The cell layers were then labeled with an antibody to specifically detect Fibrillin-1 by immunofluorescence.
Standardized photographs enabled imaging and quantification of Fibrillin-1 synthesis by image analysis (n=4).

## TGF-β1 [reference compound]
[1]
  % change/Control (fibulin-5 bands): +55% p < 0.01
[1]; control 18.6 +/− 4.3
  Mean intensity (UA) of the fibulin-5 bands: 28.8 +/− 8 UA
[2]
  % change (elastin/tropoelastin, immunolabeling): +87%; p < 0.01
[3]
  % change in the elastin/tropoelastin synthesis: +1127%; p < 0.01
[4]
  Effect on synthesis of LOXL-1 (positive control): expected effect stimulating the synthesis of LOXL-1
[5]
  % change of the transglutaminase activity (AFU/10^6 cells): +26%; p < 0.01
Fibrillin-1 by NHDF
  % change of Fibrillin-1 synthesis: +760%; p < 0.01
